Measured values taken from patent publication US11844793B2, “Liquid formulations of indacaterol” (AeroRx Therapeutics LLC, priority 2020, dated 2023).

What was measured:
Assay type in all cases: physicochemical
[1] = Aqueous solubility of indacaterol and indacaterol maleate in water (orbital shaker, UV-Vis); details: water at pH 7.1
Procedure: Solubility studies of indacaterol and indacaterol maleate were performed using an orbital shaker method. Excess indacaterol was placed in a glass vial with water. The initial pH of the water was 7.1. Samples were shaken for 12 hours to ensure equilibrium was reached. After the 12 hour period, the vial was removed from the shaker and allowed to settle for 30 minutes. Then, the sample was filtered using a 0.2 μM polyvinylidene fluoride (PVDF) syringe filter; the initial 0.5 mL of filtrate was discarded. The pH was then measured and the concentration of the indacaterol was evaluated by UV-Vis.

[2] = Forced degradation study of indacaterol (RP-HPLC impurities); details: for Total Impurities (%): includes 2% process-related impurity
Procedure: A degraded sample panel was prepared to identify indacaterol degradation pathways and products. Stress conditions are outlined in Table 1.
One of 6N HCl, 6N NaOH, or 30% H2O2 (aqueous) were added to a suitable volume of 100 μg/mL indacaterol and diluted with water:methanol (50:50, v:v) to achieve a final indacaterol concentration of 10 μg/mL. Samples were stored at ambient temperature. At specified time points, acidic and basic hydrolysis (1 N HCl and 1 N NaOH, respectively) samples were neutralized (H2O2 samples were not quenched) and reversed-phase high performance liquid chromatography (RP-HPLC) was used to quantitate indacaterol impurities. All samples were diluted to 5 μg/mL prior to RP-HPLC analysis. Method parameters are outlined in Table 2.
Total impurities (process-related and product-related) of the indacaterol forced degradation study samples are presented in Table 3. Forced degradation impurity peaks were identified based on their retention time relative (RRT) to the indacaterol peak. Impurity peaks already present in the indacaterol (control group at T0; total peak area approximately 2%) were considered process-related, while additional peaks formed after the degradation were considered product-related.

[3] = Aqueous solubility of indacaterol with varying pH in citrate buffer; details: aqueous citrate buffer 5 mM
Procedure: Solubility studies of indacaterol in solutions of varying pH were performed using an orbital shaker method. Excess indacaterol was placed in a glass vial with an aqueous citrate buffer (5 mM; prepared from citric acid and NaOH). Samples were shaken for 12 to 24 hours to ensure equilibrium was reached before checking and adjusting the pH (using 1 M HCl and NaOH) and placing samples back into the orbital shaker for an additional 12 hours. This process was repeated up to two times or until the desired pH was obtained. After the desired pH was reached, the vial was removed from the shaker and allowed to settle for 30 minutes. Then, the sample was filtered using a 0.2 μM PVDF syringe filter; the initial 0.5 mL of filtrate was discarded. The pH was then measured and the concentration of the indacaterol was evaluated by UV-Vis.

solubility in water [1]: insoluble
Total Impurities (%) ([2]; Acidic Hydrolysis (1M HCl), 15 h, ambient temperature): 7.25%
Total Impurities (%) ([2]; Acidic Hydrolysis (1M HCl), T0): 4.01%
Total Impurities (%) ([2]; Basic Hydrolysis (1M NaOH), 15 h, ambient temperature): 7.69%
Total Impurities (%) ([2]; Basic Hydrolysis (1M NaOH), T0): 3.99%
Total Impurities (%) ([2]; Control, T0): 1.81%
Total Impurities (%) ([2]; Control, T0, listed as indacaterol): approximately 2%
degradation of indacaterol samples in aqueous solutions over time ([2]; FIG. 1, forced degradation experiment): minimal degradation
Total Impurities (%) ([2]; Oxidation (1.2% H2O2), 7 h): 2.77%
Total Impurities (%) ([2]; Oxidation (1.2% H2O2), 29 h): 8.83%
Total Impurities (%) ([2]; Oxidation (1.2% H2O2), 29 h, listed as indacaterol): approximately 9%
Solubility of indacaterol versus pH [3]: increase with decreasing pH
Compound: CCc1cc2c(cc1CC)CC(NC[C@H](O)c1ccc(O)c3[nH]c(=O)ccc13)C2 [Indacaterol, (R)-5-[2-(5,6-Diethylindan-2-ylamino)-1-hydroxyethyl]-8hydroxy-1H-quinolin-2-one]
